From patent publication US20100203084A1, “METHOD FOR TREATING PAIN OR OPIOID DEPENDENCE USING A SPECIFIC TYPE OF NON-OPIOID AGENT IN COMBINATION WITH A SELECTIVE EXCITATORY-OPIOID-RECEPTOR INACTIVATOR” (priority 2006, published 2010)
“Also recorded” adds a separate entry of the source.

Legend:
Swiss-Webster mice = details: mouse, in vivo
rodents = details: high doses, administered immediately after training, rodents (ref. 20); cited from earlier work
[1] = tested on: chronic morphine-dependent mice; test: naloxone-precipitated withdrawal hyperalgesia in chronic morphine-dependent mice (tail-flick); details: naltrexone 0.1 ng/kg with naloxone, FIG. 9
rodents and humans = details: moderately low doses (˜1 μg/kg), rodents and humans (refs. 20-22); cited from earlier work
[2] = several species, including rat and human (ref. 20); cited from earlier work

Structure (SMILES): NC(CCC(=O)O)C(=O)O (racemic) [glutamic acid, dl-glutamic acid]
- duration of hyperalgesia, glutamic acid alone (Swiss-Webster mice): > 6 h
- effect on tail-flick latencies, glutamic acid alone (Swiss-Webster mice): long-lasting hyperalgesia

Structure (SMILES): CC(C)Cn1c(=O)n(C)c(=O)c2[nH]cnc21 [IBMX, 3-isobutyl-1-methylxanthine]
- duration of hyperalgesia, IBMX alone (Swiss-Webster mice): > 3 h
- effect on tail-flick latencies, IBMX alone (Swiss-Webster mice): long-lasting hyperalgesia
- effect on memory in passive avoidance tasks (rodents): improve memory

Structure (SMILES): N[C@@H](CCC(=O)O)C(=O)[O-].[Na+] [MSG, monosodium glutamate]
- effect on tail-flick latencies, MSG alone, 10-fold-higher dose (Swiss-Webster mice): evokes hyperalgesia
- effect on tail-flick latencies, MSG alone, lower dose (Swiss-Webster mice): does not evoke significant hyperalgesia

Structure (SMILES): CN[C@H](CC(=O)O)C(=O)O [NMDA, N-methyl-D-aspartate]
- duration of hyperalgesia, NMDA alone (Swiss-Webster mice): > 5 h
- effect on tail-flick latencies, NMDA alone (Swiss-Webster mice): decreases in tail-flick latencies (indicating hyperalgesia)

Structure (SMILES): O=C1CC[C@@]2(O)[C@H]3Cc4ccc(O)c5c4[C@@]2(CCN3CC2CC2)[C@H]1O5 [NTX, naltrexone]
- effect of cotreatment with 1 pg/kg rolipram in normal mice (Swiss-Webster mice): prominent, long-lasting analgesia
- effect of delayed high-dose NTX on analgesia from rolipram 1 μg/kg plus CTX-B (Swiss-Webster mice): rapidly blocked
- effect of delayed much higher dose of NTX in MSG + NTX cotreated mice (Swiss-Webster mice): blocked both hyperalgesia and analgesia
- effect of high-dose NTX on analgesia from glutamic acid cotreatment (Swiss-Webster mice): rapid attenuation of the initially prominent analgesia
- effect of high-dose NTX on analgesia from non-narcotic cotreatment (Swiss-Webster mice): antagonized rapidly
- effect of second dose of NTX alone 24 h after initial cotreatment with rolipram 1 μg/kg (Swiss-Webster mice): evoked significant analgesia
- effect of second injection of high-dose NTX on NMDA-evoked hyperalgesia and NMDA+NTX analgesia (Swiss-Webster mice): rapid attenuation of the initially prominent hyperalgesia
- effect of ultra-low-dose NTX co-administered with thousand- to million-fold lower dose of rolipram (Swiss-Webster mice): remarkable degree of opioid receptor-mediated, long-lasting analgesia
- effect of ultra-low-dose NTX cotreatment on hyperalgesia evoked by glutamate, NMDA, IBMX or rolipram (Swiss-Webster mice): rapidly blocked and reversed to prominent, long-lasting analgesia
- effect on tail-flick latencies, cotreatment with 1 mg/kg NMDA (Swiss-Webster mice): blocked NMDA-evoked hyperalgesia, and resulted in prominent analgesia
- effect on tail-flick latencies, cotreatment with 1 mg/kg glutamic acid (Swiss-Webster mice): blocked glutamic-acid-evoked hyperalgesia, and resulted in prominent analgesia
- effect on tail-flick latencies, cotreatment with 10 mg/kg IBMX, high-dose NTX (Swiss-Webster mice): not only blocked IBMX-evoked hyperalgesia, but also blocked onset of analgesia during the first hour after dosing
- effect on tail-flick latencies, cotreatment with MSG 1 mg/kg (Swiss-Webster mice): Prominent analgesia
- effect on tail-flick latencies, cotreatment with rolipram 1 pg/kg (Swiss-Webster mice): remarkably similar degree of analgesia
- effect on tail-flick latencies, cotreatment with rolipram 1 μg/kg (Swiss-Webster mice): results in prominent analgesia
- effect on tail-flick latencies, inactivator alone (control) (Swiss-Webster mice): no alterations in tail-flick latencies
- effect on tail-flick latencies, cotreatment with 10 mg/kg IBMX, ultra-low-dose NTX (Swiss-Webster mice; sc): blocked IBMX-evoked hyperalgesia, and resulted in prominent analgesia
- effect on tail-flick latencies, cotreatment with 10-fold-higher dose of MSG (Swiss-Webster mice; sc): Prominent analgesia
- effect of ultra-low-dose naltrexone cotreatment on naloxone-precipitated withdrawal hyperalgesia [1]: rapidly converted to analgesia

Structure (SMILES): C[C@H](NC(=O)[C@@H](CC(=O)NO)Cc1ccccc1)C(=O)O [kelatorphan]
- effect of kelatorphan on analgesic response to 1 pg/kg rolipram plus 0.1 ng/kg NTX (Swiss-Webster mice): prolongs the duration of the analgesic response
- effect on baseline tail-flick latency, kelatorphan alone (Swiss-Webster mice): does not alter baseline tail-flick latency
- effect on tail-flick latencies, kelatorphan 0.1 mg/kg cotreatment with rolipram 1 pg/kg (Swiss-Webster mice): prominent analgesia
- effect on tail-flick latencies, kelatorphan 1 mg/kg cotreatment with rolipram 1 pg/kg (Swiss-Webster mice): elicits prominent analgesia

Structure (SMILES): Oc1ccc2c3c1O[C@H]1c4[nH]c5c(c4C[C@@]4(O)[C@@H](C2)N(CC2CC2)CC[C@]314)C[C@@]1(O)[C@H]2Cc3ccc(O)c4c3[C@@]1(CCN2CC1CC1)[C@H]5O4 [nor-BNI, nor-binaltorphimine]
- effect on tail-flick latencies, ultra-low-dose mu- or kappa-opioid receptor antagonist cotreatment with rolipram (Swiss-Webster mice): larger magnitude of analgesia

Structure (SMILES): CCOC(=O)C1=C[C@@H](OC(CC)CC)[C@H](NC(C)=O)[C@@H](N)C1 [oseltamivir]
- effect of cotreatment with 1 pg/kg rolipram in normal mice (Swiss-Webster mice): prominent, long-lasting analgesia

Structure (SMILES): COc1ccc(C2CNC(=O)C2)cc1OC1CCCC1 (stereo not drawn) [rolipram]
- adverse side-effects (rodents and humans): relatively moderate adverse side-effects
- effect on memory behavior (rodents and humans): significant enhancement in memory behavior
- effect on tail-flick latencies, rolipram alone, 1 pg/kg (Swiss-Webster mice): no detectable hyperalgesic effect; also recorded: does not alter baseline tail-flick latency
- effect on tail-flick latencies, rolipram alone, 1 μg/kg (Swiss-Webster mice): acute hyperalgesic effects
- persistence of effect of a single low dose of rolipram (Swiss-Webster mice): still effective for more than one day
- absorption after oral administration [2]: absorbed fully and rapidly
- effect on memory in passive avoidance tasks (rodents): improve memory

Structure (SMILES): COC(=O)/C=C/C(=O)N[C@@H]1CC[C@@]2(O)[C@H]3Cc4ccc(O)c5c4[C@@]2(CCN3CC2CC2)[C@H]1O5 [β-FNA, β-funaltrexamine]
- effect on tail-flick latencies, ultra-low-dose mu- or kappa-opioid receptor antagonist cotreatment with rolipram (Swiss-Webster mice): block the acute hyperalgesic effects of rolipram and result in prominent analgesia
